Columns and labels:
[1] = tested on: cellular cGAS activity in baculovirus-stimulated THP1-Dual cells (IRF dependent Lucia luciferase reporter); test: Human cGAS cell assay: inhibition of IFN induction in virus-stimulated THP1 cells (THP1(vir) IC50); format: cell-based; conditions: Homo sapiens, THP1-Dual; inhibition of IFN induction in virus-stimulated THP1 cells; read-out: THP1(vir) IC50
Description: (§1) 6.2 Method: Human cGAS Cell Assay and cGAMP Stimulated Counter Cell Assay (THP1(vir) IC50 and THP1(cGAMP) IC50)
(§2) THP1-Dual™ cells (InvivoGen #thpd-nfis) expressing IRF dependent Lucia luciferase reporter were used as basis for both assays. For the detection of cellular cGAS activity cells were stimulated by a baculovirus (pFastbac-1, Invitrogen, no coding insert) infection that delivers the cGAS enzyme stimulating double-stranded DNA (measurement of THP1(vir) IC50).
(§3) For the counter assay, cells were stimulated by cGAMP (SigmaAldrich #SML1232) to activate the identical pathway independent and directly downstream of cGAS (measurement of THP1(cGAMP) IC50). Pathway activity was monitored by measuring the Lucia luciferase activity induced by either DNA stimulated cGAS enzyme activity (measurement of THP1(vir) IC50) or by cGAMP directly (measurement of THP1(cGAMP) IC50, counter assay).
(§4) Compounds were delivered in 10 mM DMSO solution, serially diluted and transferred to the 384 well assay plate (Greiner #781201) using an Echo acoustic dispenser. Typically, 8 concentrations were used with the highest concentration at 10 μM in the final assay volume followed by ˜1:5 dilution steps. DMSO concentration was set to 1% in the final assay volume. The 384 well assay plate contained 21 test compounds (column 1-22), and DMSO in column 23 and 24.
(§5) Cells, cultivated according to manufacturer conditions, were harvested by centrifugation at 300 g/10 min and were then resuspended and diluted to 1.66E5 cells/ml in fresh cell culture medium (RPMI 1640 (Gibco #A10491-01), 10% FCS (Gibco #10500), 1× GlutaMax (Gibco #35050-061), 1× Pen/Strep solution (Gibco #15140-122), 100 μg/ml Normocin (InvivoGen #ant-nr), 100 μg/ml Zeocin (InvivoGen #ant-zn), 10 μg/ml Blasticidin S (Life Technologies #A11139-03)). The baculovirus solution was then added 1:200 (have varied according to virus batch) to the cells (measurement of THP1(vir) IC50).
(§6) 30 μL of the cell/virus-mix were added to each well of the compound plate from column 1-23 via MultiDrop Combi dispenser (5000 cells/well). In column 24, 30 μl/5000 cells/well without virus were added as a low control.
(§7) The plates were then incubated for 18 h at 37° C. in a humidified incubator.
(§8) Following that, 15 μl of QuantiLuc detection reagent (InvivoGen #rep-qlcg5) were added to each well using a MultiDrop Combi. Measurement was done immediately after the addition using an EnVision reader (US-luminescence read-mode).
(§9) For data evaluation and calculation, the measurement of the low control was set as 0% control and the measurement of the high control was set as 100% control. The IC50 values were calculated using the standard 4 parameter logistic regression formula. Calculation: [y=(a−d)/(1+(x/c)^b)+d], a=low value, d=high value; x=conc M; c=IC50 M; b=slope

[2] = tested on: cGAMP-stimulated THP1-Dual cells (pathway directly downstream of cGAS); test: cGAMP stimulated counter cell assay: inhibition of IFN induction in cGAMP-stimulated THP1 cells (THP1(cGAMP) IC50); format: cell-based, human; conditions: for IC50: Homo sapiens, THP1-Dual, inhibition of IFN induction in cGAMP-stimulated THP1 cells, read-out: THP1(cGAMP) IC50 (converted); for Ratio THP1(cGAMP) IC50 / THP1(vir) IC50: selectivity for cGAS inhibition
Description: as §1, §2, §3, §4, §5, §6, §7, §8, §9

[3] = tested on: cellular cGAS activity in dsDNA-stimulated human whole blood; test: Human whole blood assay (hWB IC50): IFNα2α production after dsDNA transfection; format: cell-based; conditions: inhibition of IFN induction in dsDNA-stimulated human whole blood
Experimental: 6.3 Method: Human Whole Blood Assay (Human WB IC50)
For the detection of cellular cGAS activity human whole blood was stimulated by transfection with double stranded DNA. Pathway activity was monitored by measuring the IFNα2α production.
Compounds were delivered as 10 mM DMSO solution and serially diluted and transferred to the 96-well cell culture plate (Corning #3595), prefilled with 20 μl OptiMEM (Gibco, #11058-021) in each well, using an Echo acoustic dispenser. Typically, 8 concentrations were used with the highest concentration at 10 µM in the final assay volume followed by ˜1:5 dilution steps. DMSO concentration was set to 0.1% in the final assay volume. The 96-well assay plate contained 10 test compounds, and DMSO in control wells.
Collection of human whole blood from 3 or more healthy donors (male or female, no medication for 7 days except contraceptive and thyroxine) as Na-Citrate blood (e.g. 3.8% in Monovettes from Sarstedt) was conducted in parallel. Whole blood was kept at room temperature for a maximum of 3 hours after collection until use in the assay.
160 μl of the whole blood samples was transferred to each well of the 96-well assay plates filled with compound/OptiMEM. All assay plates were prepared as duplicates with blood from different donors. Blood plates were kept at room temperature for 60 minutes and continuous shaking with 450 rpm, covered with the lid, but not sealed.
20 μl OptiMEM and 9.6:1 Fugene was added to all low control wells.
After covering assay plates with aera seals and the lid, blood plates were kept at room temperature for 30 minutes and continuous shaking with 450 rpm, followed by an overnight incubation of 22 h at 37° C. in the incubator, without shaking.
For the detection of IFNα-2α in human plasma, the biotinylated capture antibody (Antibody set IFNA2, Meso Scale Diagnostics #B21VH-3, including coating and capture antibody) was diluted 1:17.5 in Diluent 100 (Meso Scale Diagnostics #R^50AA-4), according to the manufacturer's directions. U-Plex MSD GOLD 96-well Small Spot Strepavidin SECTOR Plates (Meso Scale Diagnostics #L45SA-5) were coated with 25 μl diluted capture antibody. Coated plates were incubated for 60 min at room temperature under continuous shaking at 700 rpm. MSD IFNα-2α plates were washed three times with 150 μl wash buffer (1x HBSS, 0.05% Tween).
After blocking the plates with 100 μl block solution/well (1x HBSS with 0.2% Tween, 2% BSA) for 60 min at room temperature and continuous shaking at 700 rpm, plates were emptied as dry as possible by dumping just before continuing with the human plasma.
Whole Blood assay plates were centrifuged at 1600 rpm for 10 minutes. 25 μl of supernatant was transferred with a pipetting robot from each whole blood plate to the corresponding IFNα-2α plate. Plates were sealed with microplate seals and kept at room temperature again under continuous shaking at 700 rpm for two hours.
Next MSD IFNα-2α plates were washed three times with 150 μl wash buffer (1×HBSS, 0.05% Tween), before adding 25 μl MSD SULFO-TAG IFNα-2α Antibody solution (1:100 diluted in Diluent 3 (Meso Scale Diagnostics #R50AP-2) to each well of the plates.
Afterwards plates were sealed with microplate seals and kept at room temperature again under continuous shaking at 700 rpm for two hours. Finally, MSD IFNα-2α plates were washed three times with 150 μl wash buffer (1×HBSS, 0.05% Tween). 150 μl 2× Read buffer was added to each well and plates were immediately measured with the MSD Sector S600 Reader using the vendor barcode.
For data evaluation and calculation, % control calculation of each well was based on the mean of high (DNA stimulated control) and mean of low (unstimulated control) controls by using the following formula:
[counts(sample)−counts(low))/(counts(high)−counts(low))]*100
The IC50 values were calculated using the standard 4 parameter logistic regression formula. Calculation: [y=(a−d)/(1+(x/c)^b)+d], a=low value, d=high value; x=conc M; c=IC50 M; b=slope

cGAS = cGAS (Homo sapiens (Human), UniProt Q8N884); test: Human cGAS enzyme assay (hcGAS IC50, in vitro), cGAMP formation by RapidFire MS; format: biochemical; conditions: biochemical (in vitro) cGAS inhibition;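 also: enzyme activated by 45 bp dsDNA with GTP and ATP (30 µM each), 60 min compound pre-incubation then 90 min reaction, cGAMP relative to cyclic-di-GMP internal standard, 8-point dilutions up to 10 µM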
Chain of cGAS (Q8N884 whole entry): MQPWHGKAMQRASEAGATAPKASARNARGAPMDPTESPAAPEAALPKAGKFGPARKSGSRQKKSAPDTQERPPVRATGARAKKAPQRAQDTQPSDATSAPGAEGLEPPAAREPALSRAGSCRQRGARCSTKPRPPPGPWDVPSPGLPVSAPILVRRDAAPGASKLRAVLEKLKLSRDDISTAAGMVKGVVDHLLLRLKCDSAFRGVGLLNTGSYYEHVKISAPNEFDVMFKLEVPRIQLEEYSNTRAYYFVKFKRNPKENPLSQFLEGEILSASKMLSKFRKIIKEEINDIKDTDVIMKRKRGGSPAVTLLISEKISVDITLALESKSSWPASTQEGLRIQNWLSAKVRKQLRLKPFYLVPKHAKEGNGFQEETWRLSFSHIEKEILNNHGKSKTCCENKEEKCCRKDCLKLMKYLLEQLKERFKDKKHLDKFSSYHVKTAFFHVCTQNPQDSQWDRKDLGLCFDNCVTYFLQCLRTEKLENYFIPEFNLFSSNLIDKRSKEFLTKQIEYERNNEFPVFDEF

IC50 [1] | IC50 [3] | IC50 (cGAS) | SMILES | IC50 [2] | Ratio THP1(cGAMP) IC50 / THP1(vir) IC50 [2]
7 nM | 44 nM | 3 nM | CNc1cncc(-c2cnc(O[C@H]3C[C@@H](C(=O)O)N(c4nc(C(F)(F)F)nc5c4oc4ccccc45)C3)c(N3CCOC4(COC4)[C@@H]3C)c2)c1 [Example 3.18] | 4760 nM | 645
15 nM | 84 nM | 26 nM | C[C@@H]1N(c2cc(-c3cnn(C(F)(F)F)c3)cnc2O[C@H]2C[C@@H](C(=O)O)N(c3nc(C(F)(F)F)nc4c3oc3ccccc34)C2)CCOC12COC2 [Example 3.30] | 12600 nM | 829
24 nM | 55 nM | 4 nM | C[C@@H]1N(c2cc(-c3ccnc(C#N)c3)cnc2O[C@H]2C[C@@H](C(=O)O)N(c3nc(C(F)F)nc4c3oc3ccccc34)C2)CCOC12COC2 [Example 3.21] | 11700 nM | 483
14 nM | 28 nM | 3 nM | C#Cc1cnc(O[C@H]2C[C@@H](C(=O)O)N(c3nc(C)nc4c3oc3cc(Cl)ccc34)C2)c(N2CCOC3(COC3)[C@@H]2C)c1 [Example 2.07] | 14500 nM | 1005
267 nM | 47 nM | 8 nM | C[C@@H]1N(c2cc(-c3cccc(CN)c3)cnc2O[C@H]2C[C@@H](C(=O)O)N(c3nc(C(F)F)nc4c3oc3ccccc34)C2)CCOC12COC2 [Example 3.19] | > 16600 nM | >62
177 nM | 70 nM | 16 nM | CNCc1cccc(-c2cnc(O[C@H]3C[C@@H](C(=O)O)N(c4nc(C(F)(F)F)nc5c4oc4ccccc45)C3)c(N3CCOC4(COC4)[C@@H]3C)c2)c1 [Example 3.22] | 8910 nM | 50
232 nM | 102 nM | 3 nM | C#Cc1cnc(O[C@H]2C[C@@H](C(=O)O)N(c3nc(C(F)F)nc4c3oc3ccccc34)C2)c(N2CCOC[C@@H]2C)c1 [Example 1.31] | > 16600 nM | >72
8 nM | 8 nM | 9 nM | CNc1cc(-c2cnc(O[C@H]3C[C@@H](C(=O)O)N(c4nc(C(F)(F)F)nc5c4oc4ccccc45)C3)c(N3CCOC4(COC4)[C@@H]3C)c2)ccn1 [Example 3.09] | 4820 nM | 585
7 nM | 15 nM | 3 nM | C#Cc1cnc(O[C@H]2C[C@@H](C(=O)O)N(c3nc(C(F)(F)F)nc4c3oc3ccccc34)C2)c(N2CCOC3(COC3)[C@@H]2C)c1 [Example 1.12] | 11900 nM | 1769
15 nM | 252 nM | 3 nM | C[C@@H]1N(c2cc(Br)cnc2O[C@H]2C[C@@H](C(=O)O)N(c3nc(C(F)(F)F)nc4c3oc3ccccc34)C2)CCOC12CC2 [Example 1.33] | > 10000 nM | 677
199 nM | 78 nM | 8 nM | CNc1nccc(-c2cnc(O[C@H]3C[C@@H](C(=O)O)N(c4nc(C(F)F)nc5c4oc4ccccc45)C3)c(N3CCOC4(COC4)[C@@H]3C)c2)c1OC [Example 4.03] | 7870 nM | 40
579 nM | 239 nM | 5 nM | C[C@@H]1N(c2cc(-c3ccnc([S+](C)[O-])c3)cnc2O[C@H]2C[C@@H](C(=O)O)N(c3nc(C(F)F)nc4c3oc3ccccc34)C2)CCOC12COC2 (stereo partly drawn) [Example 5.01, (2S,4S)-1-[4-(Difluoromethyl)-8-oxa-3,5-diazatricyclo[7.4.0.0^2,7]trideca-1(9),2(7),3,5,10,12-hexaen-6-yl]-4-({2′-methanesulfinyl-5-[(95)-9-methyl-2,5-dioxa-8-azaspiro[3.5]nonan-8-yl]-[3,4′-bipyridin]-6-yl}oxy)pyrrolidine-2-carboxylic acid] | 22100 nM | 38
6 nM | 7 nM | 3 nM | C#Cc1cnc(O[C@H]2C[C@@H](C(=O)O)N(c3nc(C(C)(F)F)nc4c3oc3ccccc34)C2)c(N2CCOC3(COC3)[C@@H]2C)c1 [Example 1.14] | > 16600 nM | >2708
< 5 nM | 25 nM | 10 nM | CC#Cc1cnc(O[C@H]2C[C@@H](C(=O)O)N(c3nc(C(F)(F)F)nc4c3oc3ccccc34)C2)c(N2CCOC3(COC3)[C@@H]2C)c1 [Example 6.01] | 20500 nM | 3801
